In patent publication US10538674B2, “Method of forming anti-rust or anti-bacterial film containing tannic acid derivatives” (NATIONAL INSTITUTE FOR MATERIALS SCIENCE, priority 2014, dated 2020):

Legend:
colon bacilli (E. Coli) = test: Pasteurization/Sterilization Testing 1: E. Coli scattered on film on glass substrate; type: cell-based; details: drop-cast film on glass substrate, room temperature, 24 hours after scattering, 0 hour count 1.2×10^5
Experimental: Using TA (Comparative Example 1), TA(C6)10 (Example 6), TA(C10)10 (Example 2), and TA(C16)10 (Example 8), respectively, a film was formed by drop-casting on a 5 cm×5 cm glass substrate. Preparing a THF solution, drop-casting of the THF solution in an amount of 1.1 mg/cm^2 was followed by annealing under the conditions of 1 hour and 80° C. to prepare a drop-cast film. The TA (Comparative Example 1), TA(C6)10 (Example 6), TA(C10)10 (Example 2), and TA(C16)10 (Example 8) film was formed on the glass substrate by the aforesaid method, and colon bacilli (E. Coli) were scattered on it to observe changes in the surface of the film at room temperature. FIG. 18 is a graph representative of the results of proliferation of bacteria on the film. The cell count of colon bacilli scattered at the start (0 hour) was 1.2×10^5 CFU/mL. After the lapse of 24 hours, that cell count increased to 1.4×10^7 CFU/mL for the TA coated (control) film. […] A problem with tannic acid—known so far to be capable of pasteurization in the form of an aqueous solution—was that a tannic acid film is wrinkled up, running short of durability. […] It is here to be noted that the unit CFU/mL is an abbreviation of a colony forming unit indicative of a quantitative unit used in the inspection of bacteria in foods or a unit of the quantity of bacteria. […]

[1] = tested on: golden staphs (S. Aureus); test: Pasteurization/Sterilization Testing 1: S. Aureus scattered on film on glass substrate; type: cell-based; details: drop-cast film on glass substrate, 24 hours after scattering; 0 hour count 1.1 × 10^5
[2] = tested on: methicillin-resistant Staphylococcus Aureus (MRSA); test: Pasteurization/Sterilization Testing 1: MRSA scattered on film on glass substrate; type: cell-based; details: drop-cast film on glass substrate, 24 hours after scattering; 0 hour count 1.2 × 10^5
[3] = Solubility upon addition to water and chloroform; type: physicochemical
Text: Tannic acid powders (WAKO, 203-06331) were kept at the ready. FIG. 2(a) is a photograph taken of the external view of tannic acid powders, FIG. 2(b) is a photograph of the external view of tannic acid powders upon added to water, and FIG. 2(c) is a photograph of the external view of tannic acid powders upon added to chloroform. As shown in FIG. 2(a), the tannic acid powders were ocher powders. […] This tannic acid material was used for Comparative Example 1. FIG. 4(a) is a photograph taken of the external view of the derivative, and FIGS. 4(b) and 4(c) are photographs taken of the external views of the derivative upon added to water and chloroform, respectively.

Solubility in chloroform ([3]; upon added to chloroform (CHCl3)): not in chloroform | Solubility in water ([3]; upon added to water): dissolved in water
Compound: O=C(OC[C@H]1O[C@@H](OC(=O)c2cc(O)c(O)c(OC(=O)c3cc(O)c(O)c(O)c3)c2)[C@H](OC(=O)c2cc(O)c(O)c(OC(=O)c3cc(O)c(O)c(O)c3)c2)[C@@H](OC(=O)c2cc(O)c(O)c(OC(=O)c3cc(O)c(O)c(O)c3)c2)[C@@H]1OC(=O)c1cc(O)c(O)c(OC(=O)c2cc(O)c(O)c(O)c2)c1)c1cc(O)c(O)c(OC(=O)c2cc(O)c(O)c(O)c2)c1 [TA, tannic acid]
Cell count of E. Coli, 24 hours (colon bacilli (E. Coli); listed as Control): 1.4 × 10^7 CFU/mL | Cell count of E. Coli, 24 hours (colon bacilli (E. Coli); listed as TA coated (control)): 1.4×10^7 CFU/mL | Cell count of S. Aureus, 24 hours [1]: 1.1 × 10^5 CFU/mL | Cell count of MRSA, 24 hours [2]: 1.7 × 10^5 CFU/mL
